Assay results as given in article PMC12807533 (Science (New York, N.Y.), 2025).

Legend:
XanP (His-XanP) = tested on: T1, XanP (His-XanP)
T1 construct: gene XOC_0142
T1 sequence (G7TIV3 32-261 limits assumed): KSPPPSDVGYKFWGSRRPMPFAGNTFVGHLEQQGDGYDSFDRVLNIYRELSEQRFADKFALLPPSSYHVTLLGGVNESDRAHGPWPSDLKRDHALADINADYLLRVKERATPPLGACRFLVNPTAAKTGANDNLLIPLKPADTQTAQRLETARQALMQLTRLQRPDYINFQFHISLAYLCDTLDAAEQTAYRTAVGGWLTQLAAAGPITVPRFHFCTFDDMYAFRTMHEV

Chain of AvrBs2 (AvrBs2-FLAG) (G7TIV7 1-714): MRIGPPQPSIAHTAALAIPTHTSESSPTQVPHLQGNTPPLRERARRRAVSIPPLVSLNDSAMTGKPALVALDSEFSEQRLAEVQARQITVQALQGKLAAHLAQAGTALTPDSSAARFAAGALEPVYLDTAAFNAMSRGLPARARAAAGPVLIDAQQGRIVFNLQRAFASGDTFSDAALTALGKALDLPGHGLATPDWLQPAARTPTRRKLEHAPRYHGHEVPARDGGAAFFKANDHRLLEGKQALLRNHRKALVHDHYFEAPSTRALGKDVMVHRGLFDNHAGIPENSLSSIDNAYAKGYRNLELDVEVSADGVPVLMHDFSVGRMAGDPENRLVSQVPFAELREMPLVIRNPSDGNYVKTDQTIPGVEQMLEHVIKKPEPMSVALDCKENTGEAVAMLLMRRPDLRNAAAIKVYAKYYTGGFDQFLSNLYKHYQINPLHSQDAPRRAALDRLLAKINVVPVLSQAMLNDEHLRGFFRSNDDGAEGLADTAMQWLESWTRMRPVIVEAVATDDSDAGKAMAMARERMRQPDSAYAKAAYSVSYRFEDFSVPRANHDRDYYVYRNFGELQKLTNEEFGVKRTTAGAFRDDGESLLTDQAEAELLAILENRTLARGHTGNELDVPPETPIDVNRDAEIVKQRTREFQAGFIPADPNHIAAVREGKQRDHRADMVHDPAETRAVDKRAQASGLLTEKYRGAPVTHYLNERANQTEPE

| Structure (SMILES) | TLC of hydrolysis products (XanP (His-XanP)) | TLC and HILIC-ESI-MS of in vitro xanthosan synthesis (AvrBs2 (AvrBs2-FLAG)) |
| --- | --- | --- |
| O=P(O)(O)O[C@H]1O[C@H](CO)[C@H](O)[C@H](O)[C@H]1O [Gal-1-P] | the other product migrated similarly to Gal-1-P, but not Gal-6-P | – |
| O=P1(O)OC[C@H]2O[C@H](OP(=O)(O)OC[C@H]3O[C@H](O1)[C@H](O)[C@@H](O)[C@H]3O)[C@H](O)[C@@H](O)[C@H]2O [xanthosan, bis-(1,6)-cyclic dimeric α-D-galactose-phosphate] | – | AvrBs2 converts UDP-α-D-galactose into xanthosan |
